Assay [1] relates to RBL-2H3. Briefly: Inhibition of anti-DNP-IgE-induced degranulation in rat RBL2H3 cells assessed as betahexosaminidase released at 10 uM after 20 mins by microplate reader assay. It counts as functional. The following applies: RBL-2H3, 20 min.
The subject of assay [2] is RBL-2H3. Briefly: Inhibition of anti-DNP-IgE-induced degranulation in rat RBL2H3 cells assessed as betahexosaminidase released at 100 uM after 20 mins by microplate reader assay. It counts as functional. To be noted: RBL-2H3, 20 min.

The inhibition is the share of the control response that was lost under treatment. Turning to `C[C@@H](O)CCc1ccc(O)cc1`, in the assay with RBL-2H3 [1], the inhibition at 10 µM was found to be 29.7%. Also, in the assay with RBL-2H3 [2], the inhibition at 100 µM was determined as 36.5%.

On to `C[C@H](CCc1ccc(O)cc1)O[C@@H]1O[C@H](CO)[C@@H](O)[C@H](O)[C@H]1O`, for which the inhibition at 10 µM in the assay on RBL-2H3 [1] is 25%. Moreover, the inhibition at 100 µM in the assay with RBL-2H3 [2] is 42.3%.

For `C[C@H](CCc1ccc(O)cc1)O[C@H]1O[C@H](COC(=O)C[C@@](C)(O)CC(=O)O)[C@@H](O)[C@H](O)[C@H]1O`, the inhibition at 10 µM in the assay with RBL-2H3 [1] amounted to 26.6%. The inhibition at 100 µM in the assay with RBL-2H3 [2] worked out at 20%.

`OC[C@]1(O)CO[C@@H](OC[C@H]2O[C@@H](O[C@H](CCCCc3ccc(O)cc3)CCc3ccc(O)cc3)[C@H](O[C@H]3OC[C@@](O)(CO)[C@@H]3O)[C@@H](O)[C@@H]2O)[C@H]1O`: the inhibition at 10 µM with RBL-2H3 [1] is 22.1%. Also, the inhibition at 100 µM with RBL-2H3 [2] is 23.2%.

`O=C(CCc1ccc(O)cc1)C[C@@H](CCc1ccc(O)cc1)O[C@@H]1O[C@H](CO[C@@H]2OC[C@](O)(CO)[C@H]2O)[C@@H](O)[C@H](O)[C@H]1O[C@H]1OC[C@@](O)(CO)[C@@H]1O`: in the assay with RBL-2H3 [1], the inhibition at 10 µM came out at 11.8%. Further, the inhibition at 100 µM with RBL-2H3 [2] is 23.4%.

Take `Oc1ccc(CCCC[C@@H](O)CCc2ccc(O)cc2)cc1`: the inhibition at 10 µM with RBL-2H3 [1] came to 19.2%. Moreover, in the assay with RBL-2H3 [2], the inhibition at 100 µM amounted to 31.5%.

For the compound `OC[C@]1(O)CO[C@@H](OC[C@H]2O[C@@H](O[C@H](CCCCc3ccc(O)cc3)CCc3ccc(O)cc3)[C@H](O)[C@@H](O)[C@@H]2O)[C@H]1O` [ACEROSIDEVIII], the inhibition at 10 µM in the assay with RBL-2H3 [1] stood at 11.7%. In addition, the inhibition at 100 µM in the assay on RBL-2H3 [2] amounted to 22.4%.

In the case of `C[C@H](CCc1ccc(O)cc1)O[C@@H]1O[C@H](CO[C@@H]2OC[C@@](O)(CO)[C@@H]2O)[C@@H](O)[C@H](O)[C@H]1O` [APIOSYLRHODODENDRIN], the inhibition at 10 µM with RBL-2H3 [1] was 25.4%. Moreover, the inhibition at 100 µM in the assay on RBL-2H3 [2] came to 26.7%.

Take `O=c1c(O)c(-c2ccc(O)c(O)c2)oc2cc(O)cc(O)c12` [QUERCETIN]: in the assay on RBL-2H3 [1], the inhibition at 10 µM came out at 32.9%.
